The source of these data is ChEMBL document CHEMBL1201862, “PubChem BioAssay data set” (2004).

The target of assay [1] is FAD-linked sulfhydryl oxidase ALR (Homo sapiens, UniProt P55789). The assay can be described thus: inhibitors of human ALR sulfhydryl oxidase, dose response, biochemical, H2O2 detection, luminescence, cherry-pick (AID 493248).
For assay [2], the target named is T1, Aminopeptidase N (Plasmodium falciparum FcB1/Columbia, UniProt O96935).
T1 sequence (O96935 whole entry): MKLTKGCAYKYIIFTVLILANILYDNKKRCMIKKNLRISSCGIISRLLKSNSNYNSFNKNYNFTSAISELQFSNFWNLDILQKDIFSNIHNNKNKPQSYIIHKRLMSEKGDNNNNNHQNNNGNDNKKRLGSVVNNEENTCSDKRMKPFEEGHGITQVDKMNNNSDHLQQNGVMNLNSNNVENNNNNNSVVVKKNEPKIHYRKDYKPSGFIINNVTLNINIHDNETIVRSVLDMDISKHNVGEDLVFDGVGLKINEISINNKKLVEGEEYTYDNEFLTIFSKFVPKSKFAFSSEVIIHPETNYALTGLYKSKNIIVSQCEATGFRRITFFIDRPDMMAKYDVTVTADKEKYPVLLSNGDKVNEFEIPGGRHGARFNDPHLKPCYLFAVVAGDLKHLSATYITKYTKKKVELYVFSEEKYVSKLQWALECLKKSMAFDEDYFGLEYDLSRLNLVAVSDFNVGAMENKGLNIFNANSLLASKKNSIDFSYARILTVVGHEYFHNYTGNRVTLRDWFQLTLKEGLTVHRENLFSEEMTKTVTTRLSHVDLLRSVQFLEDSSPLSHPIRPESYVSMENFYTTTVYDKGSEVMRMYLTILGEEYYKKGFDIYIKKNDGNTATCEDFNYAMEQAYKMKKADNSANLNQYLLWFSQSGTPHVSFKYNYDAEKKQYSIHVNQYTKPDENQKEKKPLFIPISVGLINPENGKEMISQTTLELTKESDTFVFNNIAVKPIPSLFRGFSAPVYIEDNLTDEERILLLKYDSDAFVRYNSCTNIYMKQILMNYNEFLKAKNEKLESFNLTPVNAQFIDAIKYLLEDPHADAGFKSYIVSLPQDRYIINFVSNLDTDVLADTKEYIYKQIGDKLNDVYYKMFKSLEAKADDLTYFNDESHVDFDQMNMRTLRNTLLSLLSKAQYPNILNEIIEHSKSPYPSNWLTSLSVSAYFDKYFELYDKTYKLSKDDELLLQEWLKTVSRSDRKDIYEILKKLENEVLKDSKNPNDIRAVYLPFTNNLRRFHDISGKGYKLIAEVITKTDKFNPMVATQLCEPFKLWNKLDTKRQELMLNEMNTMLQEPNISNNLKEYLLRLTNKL
The assay can be described thus: P. falciparum M1AAP inhibitors, biochemical, fluorogenic H-Leu-NHMec substrate, 1536-well (AID 1445). Further details: species or system Plasmodium falciparum 3D7, 3D7.

Assay [3] is described as follows: NIH-3T3 fibroblast cytotoxicity, dose response, cytotoxicity control, cell-based, fluorescence, Alamar Blue, secondary assay (AID 2327).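 Also: NIH-3T3 mouse fibroblasts cultured with fluconazole at 8 µg/mL.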 Format: functional.
Assay [4] can be described thus: C. albicans growth with fluconazole, confirmation, fluorescence, retest (AID 2467). Format: functional, cell-based.
A short description of assay [5]: inhibitors of intracellular T. cruzi replication, confirmation, NIH3T3 host cells, beta-gal luminescence (AID 2044).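 Also: intracellular parasites grown in NIH/3T3 mouse fibroblasts as host cells; luminescent beta-galactosidase reporter signal from transgenic T. cruzi replicating inside host cells; inhibitors lower the luminescence signal.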 It is filed as functional, cell-based.
A short description of assay [6]: cytotoxicity toward NIH3T3 fibroblasts, dose response, counter-screen, cell-based, ATP luminescence, mouse fibroblasts (AID 2010).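 Also: cells exposed to compound for about 90 hours before reading.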 It is filed as functional.
Assay [7] concerns INS1. The assay is described as follows: beta cell apoptosis inhibitors, cytokine rescue, dose response, luminescence, retest (AID 449756).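 Also: cell death triggered by IL-1 beta plus TNF-alpha plus IFN-gamma mixture; protective hits raise ATP signal compared with cytokine alone wells.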 Format: functional, cell-based. As to conditions: Rattus norvegicus.
Assay [8] concerns the target T2, Heat shock factor protein 1 (Mus musculus, UniProt P38532).
T2 sequence (P38532 whole entry): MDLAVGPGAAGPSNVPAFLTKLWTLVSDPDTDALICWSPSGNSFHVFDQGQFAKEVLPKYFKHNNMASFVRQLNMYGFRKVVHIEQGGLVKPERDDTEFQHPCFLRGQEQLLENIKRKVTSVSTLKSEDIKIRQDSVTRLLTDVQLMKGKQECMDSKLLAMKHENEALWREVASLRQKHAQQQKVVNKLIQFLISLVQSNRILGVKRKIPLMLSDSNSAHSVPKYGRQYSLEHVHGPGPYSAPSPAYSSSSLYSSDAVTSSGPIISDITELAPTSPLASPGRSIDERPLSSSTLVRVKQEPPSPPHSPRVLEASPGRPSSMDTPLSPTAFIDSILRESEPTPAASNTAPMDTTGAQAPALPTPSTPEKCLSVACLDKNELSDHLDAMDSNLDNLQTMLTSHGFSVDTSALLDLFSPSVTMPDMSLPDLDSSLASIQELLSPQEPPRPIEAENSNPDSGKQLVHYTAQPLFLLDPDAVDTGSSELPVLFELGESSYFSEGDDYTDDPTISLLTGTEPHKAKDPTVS
The assay can be described thus: HSF1 potentiators in luciferase reporter cells, confirmation, cell-based, NIH3T3, luminescence, dose retest (AID 435004).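 Also: stress induced by proteasome inhibitor MG132 added 30 min after compound; luciferase reporter driven by HSF1 response element in NIH3T3 cells; actives raise luminescence as potentiators of the MG132 stress response.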 Format: functional.

Assay [9] addresses Induced myeloid leukemia cell differentiation protein Mcl-1 (Homo sapiens, UniProt Q07820). It is filed as functional.
Assay [10] has as its target T3, Fatty acid synthase (Homo sapiens, UniProt P49327). The assay can be described thus: FAS thioesterase domain inhibitors, dose response, biochemical, endpoint fluorescence intensity, uHTS hits (AID 624327).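 Also: fluorescence from hydrolysis of an O-methyl fluorescein acyl ester substrate by the enzyme.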 It is filed as functional.
Assay [11] addresses T3, Fatty acid synthase. The assay can be described thus: FAS thioesterase domain inhibitors, dose response, biochemical, kinetic fluorescence intensity (AID 624326).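 Also: rate of fluorescence rise from hydrolysis of a fluorogenic O-methyl fluorescein ester substrate.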 It is filed as functional.
Assay [12] deals with SN12K1. The assay can be described thus: cells. It is filed as functional. Conditions: Homo sapiens.
Assay [13] relates to P388. The assay is described as follows: cells. Format: functional. Conditions: Mus musculus.
The test system of assay [14] is P388/ADR. The assay can be described thus: cells. Format: functional. As to conditions: Mus musculus.
Assay [15] can be described thus: inhibitors of HIV Env-driven cell fusion, dose response, cherry-pick (AID 652057). Format: functional, cell-based.

Active and inactive are the calls of the source.

Chain of FAD-linked sulfhydryl oxidase ALR (P55789 whole entry): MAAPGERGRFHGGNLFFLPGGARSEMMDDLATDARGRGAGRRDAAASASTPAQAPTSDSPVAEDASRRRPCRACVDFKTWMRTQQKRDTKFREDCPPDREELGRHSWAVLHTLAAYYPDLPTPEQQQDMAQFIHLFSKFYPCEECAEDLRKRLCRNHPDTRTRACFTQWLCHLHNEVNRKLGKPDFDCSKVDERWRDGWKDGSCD
T3 sequence (P49327 whole entry, the tested form may be a part): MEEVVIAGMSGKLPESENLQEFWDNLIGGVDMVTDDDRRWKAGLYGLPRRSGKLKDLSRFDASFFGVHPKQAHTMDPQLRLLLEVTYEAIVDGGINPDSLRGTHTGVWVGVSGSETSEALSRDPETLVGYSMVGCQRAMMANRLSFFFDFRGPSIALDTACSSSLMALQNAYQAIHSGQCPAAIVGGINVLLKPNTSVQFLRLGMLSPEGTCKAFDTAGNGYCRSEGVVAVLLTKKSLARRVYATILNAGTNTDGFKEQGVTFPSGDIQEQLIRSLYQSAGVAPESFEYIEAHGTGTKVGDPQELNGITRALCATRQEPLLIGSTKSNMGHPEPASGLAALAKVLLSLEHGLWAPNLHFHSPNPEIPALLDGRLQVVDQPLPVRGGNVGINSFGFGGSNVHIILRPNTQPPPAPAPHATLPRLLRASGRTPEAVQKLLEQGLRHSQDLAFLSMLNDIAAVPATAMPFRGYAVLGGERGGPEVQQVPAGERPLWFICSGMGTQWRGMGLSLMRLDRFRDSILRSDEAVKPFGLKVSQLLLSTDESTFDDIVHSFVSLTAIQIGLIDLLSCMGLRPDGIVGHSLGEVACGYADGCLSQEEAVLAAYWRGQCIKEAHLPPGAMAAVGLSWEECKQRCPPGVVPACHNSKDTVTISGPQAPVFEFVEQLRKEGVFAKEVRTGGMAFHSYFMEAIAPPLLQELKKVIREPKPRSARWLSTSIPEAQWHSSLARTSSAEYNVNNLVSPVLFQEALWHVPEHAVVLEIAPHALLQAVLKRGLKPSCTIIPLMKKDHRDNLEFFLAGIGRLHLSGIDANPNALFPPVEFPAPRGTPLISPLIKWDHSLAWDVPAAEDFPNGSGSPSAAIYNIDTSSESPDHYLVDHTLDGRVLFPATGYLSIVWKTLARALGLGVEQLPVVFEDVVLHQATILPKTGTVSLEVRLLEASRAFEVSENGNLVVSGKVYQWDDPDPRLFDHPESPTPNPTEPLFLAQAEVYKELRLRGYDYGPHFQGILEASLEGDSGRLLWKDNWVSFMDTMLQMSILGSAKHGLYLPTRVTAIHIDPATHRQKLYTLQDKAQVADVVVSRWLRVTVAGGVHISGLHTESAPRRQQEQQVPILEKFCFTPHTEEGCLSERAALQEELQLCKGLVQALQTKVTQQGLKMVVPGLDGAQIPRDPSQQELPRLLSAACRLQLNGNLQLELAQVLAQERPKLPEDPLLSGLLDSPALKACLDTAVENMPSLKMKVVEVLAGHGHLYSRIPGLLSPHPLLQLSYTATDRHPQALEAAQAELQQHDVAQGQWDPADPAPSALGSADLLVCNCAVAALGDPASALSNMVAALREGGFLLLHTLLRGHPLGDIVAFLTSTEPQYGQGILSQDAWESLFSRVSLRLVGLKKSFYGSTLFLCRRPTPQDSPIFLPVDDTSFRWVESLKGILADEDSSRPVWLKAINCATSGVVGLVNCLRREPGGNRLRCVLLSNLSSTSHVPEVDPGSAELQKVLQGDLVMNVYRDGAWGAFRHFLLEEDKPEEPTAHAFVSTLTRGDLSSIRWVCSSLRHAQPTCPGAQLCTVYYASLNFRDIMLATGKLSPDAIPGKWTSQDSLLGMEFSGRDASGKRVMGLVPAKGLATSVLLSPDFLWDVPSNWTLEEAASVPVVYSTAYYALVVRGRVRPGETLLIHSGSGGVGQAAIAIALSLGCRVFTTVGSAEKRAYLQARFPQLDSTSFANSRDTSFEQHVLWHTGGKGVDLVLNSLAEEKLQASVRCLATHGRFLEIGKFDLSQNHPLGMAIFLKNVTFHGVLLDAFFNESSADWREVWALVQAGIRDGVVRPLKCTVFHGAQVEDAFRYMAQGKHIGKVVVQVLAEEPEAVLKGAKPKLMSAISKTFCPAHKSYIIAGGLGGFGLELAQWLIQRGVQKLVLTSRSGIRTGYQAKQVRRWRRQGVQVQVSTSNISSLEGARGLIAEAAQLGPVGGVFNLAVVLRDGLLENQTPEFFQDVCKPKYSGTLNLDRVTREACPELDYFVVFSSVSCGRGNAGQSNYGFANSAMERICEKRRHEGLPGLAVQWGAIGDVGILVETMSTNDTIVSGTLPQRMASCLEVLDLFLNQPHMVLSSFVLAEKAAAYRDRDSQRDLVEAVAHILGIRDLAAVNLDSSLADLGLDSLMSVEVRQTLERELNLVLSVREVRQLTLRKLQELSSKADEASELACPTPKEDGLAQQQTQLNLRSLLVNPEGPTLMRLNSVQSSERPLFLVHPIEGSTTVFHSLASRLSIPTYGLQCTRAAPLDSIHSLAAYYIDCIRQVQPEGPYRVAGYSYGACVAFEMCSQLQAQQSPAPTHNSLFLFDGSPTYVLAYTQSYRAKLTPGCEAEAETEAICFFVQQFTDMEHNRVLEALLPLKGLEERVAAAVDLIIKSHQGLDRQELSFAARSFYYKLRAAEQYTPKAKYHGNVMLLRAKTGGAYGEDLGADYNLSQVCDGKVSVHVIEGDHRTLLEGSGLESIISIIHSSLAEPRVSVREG
Chain of Induced myeloid leukemia cell differentiation protein Mcl-1 (Q07820 whole entry, the tested form may be a part): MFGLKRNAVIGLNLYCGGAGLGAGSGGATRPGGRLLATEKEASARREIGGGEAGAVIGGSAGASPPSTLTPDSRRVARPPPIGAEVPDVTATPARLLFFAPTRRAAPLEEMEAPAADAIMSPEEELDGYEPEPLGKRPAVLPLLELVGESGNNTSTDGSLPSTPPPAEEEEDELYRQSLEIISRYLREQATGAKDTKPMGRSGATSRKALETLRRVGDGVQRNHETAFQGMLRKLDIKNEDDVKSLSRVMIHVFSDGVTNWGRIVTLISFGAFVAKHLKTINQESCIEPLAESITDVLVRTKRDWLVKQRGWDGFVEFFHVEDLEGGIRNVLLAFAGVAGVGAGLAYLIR

For `Cc1ccc(NC2CCCN(C(=O)c3cn4cc(Cl)ccc4n3)C2)cc1C` (configuration not stated), the AC50 in assay [1] is 1.01 µM (active).

Turning to `COc1ccc(C2CC(c3ccccc3)=NN2c2ccccc2)c(C(=O)O)c1OC` (configuration not stated), the AC50 in assay [1] was 4.74 µM (active).

As for `CCO/C(O)=C1/C(CC)=Nc2ccccc2N=C1NS(=O)(=O)c1cc(Br)ccc1Br`, in [2], the IC50 was 30.3 µM (active).

`O=C(NN/C=C1\C(=O)N(c2ccccc2Cl)C(=O)c2ccccc21)c1cccnc1`: the IC50 in assay [2] is 32.6 µM (active).

`CCCCCCCC[n+]1cccc2c3ccccc3ccc21`: the EC50 in [3] was 69.2 µM (active); in assay [4] it was 2.81 µM (active); in assay [5], 161 nM (active); in assay [6], 8.8 µM (active). Also, the AC50 in assay [7] was 268 nM (active).

With `O=C(CCC1CCCN(C(=O)c2ccc3cc[nH]c3c2)C1)NCc1ccc(F)c(F)c1` (configuration not stated), the IC50 in assay [2] was 33.1 µM (active). In addition, in [8], the EC50 is 38.9 µM (active).

As to `O=C(CCN1CCOCC1)Nc1c(O)nc2ccc(Br)cc2c1-c1ccccc1`, the IC50 in [2] was 93.9 µM (active).

Turning to `O=CNCCCc1nc2ccccc2n1Cc1cccc2ccccc12`, the EC50 in assay [3] is > 150 µM (inactive); in [4] it was 4.77 µM (active).

`O=C1N/C(=N\c2ccccc2)S/C1=C\C=C\c1ccco1`: in [9], the IC50 is 12.2 µM (active).

As for `Cc1ccc(C(=O)NCCSc2snnc2C)cc1`, in [1], the AC50 was 0.117 µM (active).

With `Sc1nc2cc(Cl)c3cccnc3c2o1`, the figures for the EC50 in assay [3], in [4] and in assay [8] were > 150 µM (inactive), > 38 µM (not active) and > 260 µM (inactive), respectively.

As for `CCc1n[nH]c(C(=O)N2CCCC(Nc3cccc(F)c3)C2)c1C` (configuration not stated), the AC50 in assay [1] was 2.88 µM (active).

Take `Cc1ccc(S(=O)(=O)Nc2cc(C)c(O)cc2C)cc1`: in assay [1], the concentration at half-maximal activity (AC50) was 3.11 µM (active).

With `Cc1cc(C)c(NS(=O)(=O)c2cccc3cccnc23)c(C)c1`, the EC50 in [3] was 38.5 µM (active); in assay [4] it was > 38 µM (not active).

As for `O=C1CC(N2CCN(c3ccc(S(=O)(=O)N4CCOCC4)cc3)CC2)C(=O)N1Cc1ccccc1` (configuration not stated), the IC50 in [10] is 8.79 µM (active); in assay [11], 7.53 µM (active).

Turning to `Cc1ccc(N2C(=O)NC(=O)/C(=C/c3cnc(-c4ccccc4)nc3)C2=O)cc1C`, the IC50 in [9] is 1.66 µM (active).

`COc1ccc(CC(=N)NOC(=O)c2cccc([N+](=O)[O-])c2)cc1`: the IC50 was 18.3 µM (active) in assay [10] and 14.6 µM (active) in [11].

Consider `NC(S)=NNc1cccc(Cl)c1`, for which the EC50 in assay [3] was > 160 µM (inactive); in assay [4] it was > 38 µM (not active).

As to `COc1cccc(NC(=O)CN2C(=O)COc3ccc(S(=O)(=O)N4CCC(C)CC4)cc32)c1`, the EC50 in assay [8] was > 260 µM (inactive). The IC50 was 7.97 µM (active) in assay [10] and 6.57 µM (active) in assay [11].

On to `O=C(CC1C[C@H](C(=O)N2CCOCC2)[C@@]2(CCC3CCCC3)c3[nH]c4ccccc4c3CCN2C1=O)NCCCn1ccnc1` (some centres not stated), for which the IC50 in assay [10] is 4.37 µM (active); in assay [11] it was 2.7 µM (active).

As for `Nc1ncc2c(n1)-c1ccccc1OC2`, the GI50 in assay [12] and in assay [13] was > 100 µM (inactive) each time.

In the case of `CN(C)CCNC(=O)c1cccc2c1C(=O)c1ccccc1C2=O`, the results for the GI50 in assay [14], in [12] and in [13] were 20.8 µM (inactive), 49.5 µM (inactive) and 19.7 µM (inactive), respectively.

Take `CC(/C=N/N=C(N)N)=N\N=C(N)N`: the GI50 was 0.519 µM (active) in [14], 2.17 µM (inactive) in assay [12] and 0.25 µM (active) in assay [13].

With `CC1=CC2c3cccc4[nH]cc(c34)CC2N(C)C1` (configuration not stated), the GI50 in assay [14] is 14.2 µM (inactive); in assay [12], 27.2 µM (inactive); in assay [13], 31 µM (inactive).

Regarding `Cc1c2c(cc3c1[nH]c1ccccc13)C(c1ccc(F)cc1)=NCC2`, the GI50 in assay [14] is 0.448 µM (active); in assay [12], 0.925 µM (active); in assay [13], 0.809 µM (active).

For the molecule `O=S(=O)(O)c1cc2ccc1/C=C\c1ccc(cc1S(=O)(=O)O)/N=N\c1ccc(c(S(=O)(=O)O)c1)/C=C\c1ccc(cc1S(=O)(=O)O)/N=N\2`, the GI50 in [14], in assay [12] and in assay [13] was > 100 µM (inactive) each time.

In the case of `CC(C)CC#Cc1ccc2c(c1)O[C@@H](CN(C)C(=O)C1CCCCC1)[C@H](C)CN([C@@H](C)CO)S2(=O)=O`, the AC50 in assay [15] is 27.8 µM (active).

For the molecule `COc1cc([C@@H]2c3cc4c(c(O[C@@H]5O[C@H]6CO[C@@H](C)O[C@H]6[C@H](O)[C@@H]5O)c3C[C@H]3COC(=O)[C@@H]32)OCO4)cc(OC)c1O`, the GI50 is 10.9 µM (inactive) in assay [12] and 2.16 µM (inactive) in assay [13].

Consider `COC1C(O)CC(OC2CC(Oc3cc4cc5c(c(O)c4c(O)c3C)C(=O)[C@@H](OC3CC(OC4CC(OC6CC(C)(O)C(OC(C)=O)C(C)O6)C(O)C(C)O4)C(O)C(C)O3)[C@H]([C@H](OC)C(=O)[C@@H](O)[C@@H](C)O)C5)OC(C)C2OC(C)=O)OC1C` (some centres not stated) [CHROMOMYCIN], for which the GI50 is 0.132 µM (active) in [14] and 0.0034 µM (active) in assay [12].
